According to the NIST ThermoML archive (doi:10.1016/j.jct.2006.03.017):
Numbers after ± are expanded uncertainties.

What was measured:
[1] = Liquid
[2] = refractive index (Na D-line) (dimensionless); conditions: 293.15 K; 101.33 kPa; Liquid; Standard Abbe refractometry

With `CCCCCCCC/C=C\CCCCCCCCO` [(Z)-9-octadecen-1-ol] the mass density ([1]; 293.15 K, 101.33 kPa) was 848.5 ± 44 kg/m3, the “vapor or sublimation pressure” value ([1]; 480.05 K, Distillation) was 2 kPa and the refractive index [2] was 1.4603 ± 0.0032.
